Test results from patent publication US20160176867A1, “MODIFIED BET-PROTEIN-INHIBITING DIHYDROQUINOXALINONES AND DIHYDROPYRIDOPYRAZINONES” (BAYER PHARMA AKTIENGESELLSCHAFT, priority 2013, published 2016).
pIC50: −log10 of the molar value.

Columns and labels:
[1] = biological target: T1, BRD4 bromo domain 2 [BRD4(2)] (Homo sapiens, UniProt O60885); experiment: BRD4/acetylated peptide H4 binding assay (TR-FRET), BRD4 bromo domain 2; conditions: inhibition of BRD4(2)/Ac-H4 peptide interaction
T1 construct: N-terminally His6-tagged BRD4(2) (amino acids 357-445); made in house; host or cells: E. coli
In short: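 IC50 comes from a 4-parameter fit over 0.1 nM–20 μM in duplicate, normalised to DMSO and no-protein controls. TR-FRET (Eu-streptavidin/anti-His-XL665) tracks His-tagged BRD4(2) 357-445 at 100 nM binding Ac-H4 peptide in HEPES pH 7.5 buffer. Incubation was 1 h at 22 °C, then at 4 °C ≥3 h up to overnight.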

MOLM-13 cells = experiment: Cell proliferation assay (alamarBlue), MOLM-13; type: cell-based; conditions: Homo sapiens; MOLM-13 (acute myeloid leukaemia), 96 hours
In short: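 Cells in RPMI1640 with 10% FCS, read by alamarBlue fluorescence (ex 530, em 590 nm) after overnight plating and again after 96 h compound exposure at 37° C (1E-5 to 1E-8 M). Baseline-subtracted signal compared with buffer-treated cells to derive IC50.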

MOLP-8 cells = experiment: Cell proliferation assay (alamarBlue), MOLP-8; type: cell-based; conditions: Homo sapiens; MOLP-8 (multiple myeloma), 120 hours
In short: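 MOLP-8 cells plated at 4000 cells/well in RPMI1640 with 20% FCS, read after overnight culture, then treated with dilutions from 1E-5 to 1E-8 M for 120 hours at 37° C. Viability by alamarBlue fluorescence (ex 530/em 590 nm); initial reads subtracted, compared with buffer-treated cells, and IC50 calculated for 50% proliferation inhibition.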

CHL-1 cells = experiment: Cell proliferation assay (alamarBlue), CHL-1; type: cell-based; conditions: Homo sapiens; CHL-1 (melanoma, BRAF wild-type), 96 hours
Protocol: In accordance with the invention, the ability of the substances to inhibit cell proliferation was determined. Cell viability was determined by means of the alamarBlue® reagent (Invitrogen) in a Victor X3 Multilabel Reader (Perkin Elmer). The excitation wavelength was 530 nm and the emission wavelength […].
The CHL-1 cells (ATCC, CRL-9446) were sown at a concentration of 1000 cells/well in 100 μl of growth medium (DMEM with glutamine, 10% FCS) on 96-well microtitre plates.
After overnight incubation at 37° C., the fluorescence values were determined (CI values). Then the plates were treated with various substance dilutions (1E-5 M, 3E-6 M, 1E-6 M, 3E-7 M, 1E-7 M, 3E-8 M, 1E-8 M) and incubated at 37° C. over 96 hours (MOLM-13, B16F10, CHL-1 cells) or 120 hours (MOLP-8 cells). Subsequently, the fluorescence values were determined (CO values). For the data analysis, the CI values were subtracted from the CO values and the results were compared between cells which had been treated with various dilutions of the substance or only with buffer solution. The IC50 values (substance concentration needed for 50% inhibition of cell proliferation) were calculated therefrom.

Compound	pIC50 [1]	pIC50 (MOLM-13 cells)	pIC50 (MOLP-8 cells)	pIC50 (CHL-1 cells)
C[C@@H]1C(=O)N(C)c2ccc(Nc3cccc(S(=O)(=O)NC4CC4)c3)nc2N1C1CCOCC1 [Example 26, N-Cyclopropyl-3-{[(3R)-1,3-dimethyl-2-oxo-4-(tetrahydro-2H-pyran-4-yl)-1,2,3,4-tetrahydropyrido[2,3-b]pyrazin-6-yl]amino}benzenesulphonamide]	7.51	7.49	7.62	7.51
C[C@@H]1C(=O)N(C)c2ccc(Nc3cccc(S(=O)(=O)N[C@H]4CC[C@H](N5CCN(CC6CC6)CC5)CC4)c3)nc2N1C1CCN(C(=O)OC(C)(C)C)CC1 [Example 52, tert-butyl 4-[(3R)-6-{[3-({trans-4-[4-(cyclo-propylmethyl)piperazin-1-yl]cyclohexyl}-sulphamoyl)phenyl]amino}-1,3-dimethyl-2-oxo-2,3-dihydropyrido[2,3-b]pyrazin-4(1H)-yl]piperidine-1-carboxylate]	7.07	6.74	6.88	6.83
CCNS(=O)(=O)c1cccc(Nc2ccc3c(n2)N(C2CCOCC2)[C@H](C)C(=O)N3C)c1 [Example 23, 3-{[(3R)-1,3-dimethyl-2-oxo-4-(tetrahydro-2H-pyran-4-yl)-1,2,3,4-tetrahydropyrido[2,3-b]pyrazin-6-yl]amino}-N-ethylbenzenesulphonamide]	7.41	7.33	7.43	7.30
C[C@@H]1C(=O)N(C)c2ccc(Nc3cccc(S(=O)(=O)N4CC5(CCC5)C4)c3)nc2N1C1CCNCC1 [Example 122, (3R)-6-{[3-(2-Azaspiro[3.3]hept-2-ylsulphonyl)phenyl]amino}-1,3-dimethyl-4-(piperidin-4-yl)-3,4-dihydropyrido[2,3-b]pyrazin-2(1H)-one]	7.03	6.40	6.31	6.15
COc1ccc(S(=O)(=O)N2CCOCC2)cc1Nc1ccc2c(n1)N(C1CCN(C)CC1)[C@H](C)C(=O)N2C [Example 25, (3R)-6-{[2-Methoxy-5-(morpholin-4-ylsulphonyl)phenyl]amino}-1,3-dimethyl-4-(1-methylpiperidin-4-yl)-3,4-dihydropyrido[2,3-b]pyrazin-2(1H)-one]	7.25	7.74	7.96	7.80

Continued, in another order:

pIC50 [1]	pIC50 (MOLM-13 cells)	Compound	pIC50 (MOLP-8 cells)	pIC50 (CHL-1 cells)
6.59	6.60	C[C@@H]1C(=O)N(C)c2ccc(Nc3cccc(C(=O)N[C@H]4CC[C@H](N5CCN(CC6CC6)CC5)CC4)c3)nc2N1Cc1ccccc1 [Example 72, 3-{[(3R)-4-benzyl-1,3-dimethyl-2-oxo-1,2,3,4-tetrahydropyrido[2,3-b]pyrazin-6-yl]amino}-N-{trans-4-[4-(cyclo-propylmethyl)piperazin-1-yl]cyclohexyl}benzamide]	6.91	6.97
6.73	6.25	COCCN1c2nc(Nc3cccc(S(=O)(=O)N4CCN(C)CC4)c3)ccc2N(C)C(=O)C1C (racemic) [Example 53, 4-(2-methoxyethyl)-1,3-dimethyl-6-({3-[(4-methylpiperazin-1-yl)sulphonyl]phenyl}-amino)-3,4-dihydropyrido-[2,3-b]pyrazin-2(1H)-one]	6.44	6.75
7.07	6.96	C[C@@H]1C(=O)N(C)c2ccc(Nc3cccc(C(=O)NC4CCN(C)CC4)c3)nc2N1Cc1ccccc1 [Example 73, 3-{[(3R)-4-benzyl-1,3-dimethyl-2-oxo-1,2,3,4-tetrahydropyrido[2,3-b]pyrazin-6-yl]amino}-N-(1-methylpiperidin-4-yl)benzamide]	7.20	7.10
7.04	6.80	C[C@@H]1C(=O)N(C)c2ccc(Nc3cccc(C(=O)NCCN4CCN(C)CC4)c3)nc2N1Cc1ccccc1 [Example 74, 3-{[(3R)-4-benzyl-1,3-dimethyl-2-oxo-1,2,3,4-tetrahydropyrido[2,3-b]pyrazin-6-yl]amino}-N-[2-(4-methylpiperazin-1-yl)ethyl]benzamide]	7.09	7.08
